Patent US20120270929A1, “MODULATION OF TTC39 EXPRESSION TO INCREASE HDL” (ISIS Pharmaceuticals, Inc., priority 2009, published 2012)
Oligonucleotides are written 5' to 3', each unit as a sugar letter and its base; * is a phosphorothioate linkage, no mark a phosphodiester; rarer units and linkages stand in square brackets, end groups in braces. Plain capitals give the bases only. e = 2'-O-(2-methoxyethyl) (MOE); [5mC] = 5-methylcytosine; d = 2'-deoxy (DNA)

Columns and labels:
murine TTC39C mRNA [1] = assay: Dose-dependent antisense inhibition of murine TTC39C in mouse primary hepatocytes; assay type: cell-based; conditions: electroporation, ~16 h; for IC50: mouse primary hepatocytes
Method in brief: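 Mouse primary hepatocytes (30,000/well) electroporated with antisense oligonucleotide at 500, 1,000, 2,000, 4,000 or 8,000 nM and harvested after about 16 h. TTC39C mRNA quantified by RT-qPCR (primer probe set RTS3266), normalised to RIBOGREEN total RNA; percent inhibition versus untreated cells.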

murine TTC39C mRNA [2] = assay: Antisense inhibition of mouse TTC39C in mouse primary hepatocytes, single dose; assay type: cell-based; conditions: 8,000 nM antisense oligonucleotide, electroporation, approximately 24 hours, TTC39C mRNA by real-time PCR (RTS3266), relative to untreated control cells
Protocol: Antisense oligonucleotides were designed targeting a TTC39C nucleic acid and were tested for their effects on TTC39C mRNA in vitro. Cultured mouse primary hepatocytes at a density of 30,000 cells per well were transfected by electroporation with 8,000 nM antisense oligonucleotide. After a treatment period of approximately 24 hours, RNA was isolated from the cells and TTC39C mRNA levels were measured by quantitative real-time PCR. Mouse primer probe set RTS3266 (forward sequence […], designated herein as SEQ ID NO: 140; reverse sequence […], designated herein as SEQ ID NO: 141; probe sequence […], designated herein as SEQ ID NO: 142). TTC39C mRNA levels were adjusted according to total RNA content, as measured by RIBOGREEN®. Results are presented as percent inhibition of TTC39C, relative to untreated control cells.
The chimeric antisense oligonucleotides targeting TTC39C were designed as 5-10-5 MOE gapmers. The gapmers are 20 nucleotides in length, wherein the central gap segment is comprised of ten 2′-deoxynucleotides and is flanked on both sides (in the 5′ and 3′ directions) by wings comprising five nucleotides each. Each nucleotide in the 5′ wing segment and each nucleotide in the 3′ wing segment has a 2′-MOE modification. The internucleoside linkages throughout each gapmer are phosphorothioate (P═S) linkages. All cytosine residues throughout each gapmer are 5-methylcytosines. “Mouse Target start site” indicates the 5′-most nucleotide to which the gapmer is targeted in the mouse gene sequence.

Row | Substance | percent inhibition of TTC39C mRNA (murine TTC39C mRNA [1]; 500.0 nM) | percent inhibition of TTC39C mRNA (murine TTC39C mRNA [1]; 1000.0 nM) | percent inhibition of TTC39C mRNA (murine TTC39C mRNA [1]; 2000.0 nM) | percent inhibition of TTC39C mRNA (murine TTC39C mRNA [1]; 4000.0 nM) | percent inhibition of TTC39C mRNA (murine TTC39C mRNA [1]; 8000.0 nM) | % inhibition (murine TTC39C mRNA [2]) | IC50 (murine TTC39C mRNA [1])
1 | ISIS 474518: 5-10-5 MOE gapmer antisense oligonucleotide targeting murine TTC39C (antisense eG*eT*eA*eG*eT*d[5mC]*dT*dT*dT*dA*dA*dG*dT*d[5mC]*dA*eT*e[5mC]*eG*e[5mC]*eA) | 61% | 73% | 90% | 94% | 96% | 96% | –
2 | ISIS 474666: 5-10-5 MOE gapmer antisense oligonucleotide targeting murine TTC39C (antisense e[5mC]*eA*eA*eT*e[5mC]*dA*dT*dG*d[5mC]*dT*dG*d[5mC]*dA*d[5mC]*d[5mC]*eA*eG*e[5mC]*e[5mC]*eT) | 35% | 54% | 79% | 92% | 95% | 95% | 800 nM
3 | ISIS 474540: 5-10-5 MOE gapmer antisense oligonucleotide targeting murine TTC39C (antisense e[5mC]*e[5mC]*eA*e[5mC]*eT*dG*dG*dG*dA*dG*dT*dT*dT*dA*dT*e[5mC]*eA*e[5mC]*eT*eG) | 43% | 65% | 81% | 92% | 97% | 98% | 500 nM
4 | ISIS 474629: 5-10-5 MOE gapmer antisense oligonucleotide targeting murine TTC39C (antisense eG*eA*eT*e[5mC]*eA*d[5mC]*dT*dG*d[5mC]*d[5mC]*dG*dT*d[5mC]*d[5mC]*dA*eA*eA*eG*e[5mC]*eA) | 16% | 28% | 42% | 48% | 66% | 93% | 3600 nM
5 | ISIS 474589: 5-10-5 MOE gapmer antisense oligonucleotide targeting murine TTC39C (antisense eT*e[5mC]*e[5mC]*eG*eA*dA*dA*dT*d[5mC]*dG*d[5mC]*dT*d[5mC]*dA*dG*e[5mC]*e[5mC]*eT*eG*e[5mC]) | 95% | 96% | 97% | 99% | 100% | 100% | –
6 | ISIS 474609: 5-10-5 MOE gapmer antisense oligonucleotide targeting murine TTC39C (antisense e[5mC]*eG*eT*eA*eG*dT*dA*dG*d[5mC]*dA*d[5mC]*dT*dG*dG*dG*eA*e[5mC]*e[5mC]*eA*e[5mC]) | 48% | 56% | 71% | 90% | 97% | 95% | 600 nM
7 | ISIS 474601: 5-10-5 MOE gapmer antisense oligonucleotide targeting murine TTC39C (antisense eG*eG*e[5mC]*e[5mC]*eA*dT*dA*dT*d[5mC]*d[5mC]*dA*dA*dA*dG*d[5mC]*eT*e[5mC]*eA*e[5mC]*eA) | 36% | 49% | 65% | 87% | 92% | 91% | 1000 nM
8 | ISIS 474592: 5-10-5 MOE gapmer antisense oligonucleotide targeting murine TTC39C (antisense eG*eA*eA*eG*e[5mC]*dA*dT*dA*dT*dT*dG*dA*dT*dG*d[5mC]*e[5mC]*eA*eG*e[5mC]*e[5mC]) | 24% | 45% | 71% | 84% | 92% | 93% | 1200 nM
9 | ISIS 474517: 5-10-5 MOE gapmer antisense oligonucleotide targeting murine TTC39C (antisense e[5mC]*e[5mC]*eT*e[5mC]*eG*dA*dA*dT*dG*dT*d[5mC]*dA*dT*d[5mC]*dA*eT*eG*eG*e[5mC]*eG) | 60% | 67% | 89% | 95% | 97% | 98% | –
10 | ISIS 474607: 5-10-5 MOE gapmer antisense oligonucleotide targeting murine TTC39C (antisense eT*e[5mC]*eA*eA*eT*d[5mC]*dA*dT*dG*d[5mC]*dT*dG*d[5mC]*dA*d[5mC]*e[5mC]*eA*eG*e[5mC]*e[5mC]) | 40% | 65% | 85% | 92% | 94% | 98% | 500 nM
